Assay results as given in patent publication US9651554B2, “Molecular diagnostic methods for predicting brain metastasis of breast cancer” (The Methodist Hospital Research Institute, priority 2010, dated 2017).
Blank lines part the entries; values can stand above or below the molecule they belong to.

Key:
in vivo = conditions: BALB/c nude, mouse, po
Experimental: Blood and whole brain of the mice were harvested 6 hours after the last treatment. Plasma was isolated from blood by centrifugation at 3000 rpm for 10 min at 4° C. Half of each brain was flash frozen using liquid nitrogen. All plasma and brain samples were stored at −80° C. until analysis by HPLC-MS/MS.
The separation was performed by injecting 10 μL of the sample on Acquity HPLC BEH C18 column (50×2.1 mm I.D., 1.7 μm, Waters, Milford, Mass., USA). […] The flow rate was 0.45 mL/min using a column temperature of 45° C.
The blood and whole brain of the mice were harvested six hours after the last treatment and the drug concentrations were measured by HPLC-MS/MS.

[1] = reported (Porkka et al., 2008); cited from earlier work
231-BR-HER2 cells = test: Brain metastasis xenograft, 231-BR-HER2 model: metastases counted in H&E-stained brain sections; conditions: for fewer large metastases than vehicle / fewer micrometastases than vehicle: 231-BR-HER2 cells, p<0.05; for large metastases # / Micro metastases #: 231-BR-HER2 model; for large metastases #: >50 μm^2; for Micro metastases #: ≦50 μm^2
231-BR-vector cells = test: Brain metastasis xenograft, 231-BR-vector model: metastases counted in H&E-stained brain sections; conditions: for large metastases # / Micro metastases #: 231-BR-vector model; for large metastases #: >50 μm^2; for Micro metastases #: ≦50 μm^2
Excerpt: Treatment started 3 days after cell injection.
Brain sections (10 μm thick) were serially sectioned.
Mice received 28 days treatment, and all mice were sacrificed, and brains were harvested for ex vivo whole-brain fluorescent imaging of EGFP-positive brain metastases.

[2] = 25 mg/kg once daily oral 28 days
[3] = 50 mg/kg once daily oral 28 days
[4] = 40 mg/kg once daily oral 28 days
[5] = 80 mg/kg once daily oral 28 days

Kp at 336 h (in vivo): 0.06 to 0.12
Compound: Cc1nc(Nc2ncc(C(=O)Nc3c(C)cccc3Cl)s2)cc(N2CCN(CCO)CC2)n1 [Dasatinib]
BBB crossing [1]: able to cross the BBB | fewer large metastases than vehicle (231-BR-HER2 cells; 25 or 50 mg/kg body weight): 38.1-56.9% | fewer micrometastases than vehicle (231-BR-HER2 cells; 25 or 50 mg/kg body weight): 40.2-61.4% | large metastases # (231-BR-HER2 cells; [2]): 12.5 ± 1.8 | Micro metastases # (231-BR-HER2 cells; [2]): 175.7 ± 27.8 | large metastases # (231-BR-HER2 cells; [3]): 8.7 ± 1.6 | Micro metastases # (231-BR-HER2 cells; [3]): 113.2 ± 23.8 | fewer micrometastases than vehicle (231-BR-vector cells; 231-BR-vector cells, 25 or 50 mg/kg body weight, p<0.05): 33.8-54.4% | fewer large metastases than vehicle (231-BR-vector cells; 231-BR-vector cells, 25 or 50 mg/kg, p<0.05): 41.9-49.3% | large metastases # (231-BR-vector cells; [2]): 8.6 ± 1.5 | Micro metastases # (231-BR-vector cells; [2]): 144.6 ± 12.5 | large metastases # (231-BR-vector cells; [3]): 7.5 ± 1.3 | Micro metastases # (231-BR-vector cells; [3]): 99.5 ± 10.3

Kp at 336 h (in vivo): 0.24 to 0.31
Compound: CCN(CC)CCNC(=O)c1c(C)[nH]c(/C=C2\C(=O)Nc3ccc(F)cc32)c1C [Sunitinib]
fewer large metastases than vehicle (231-BR-HER2 cells; 40 or 80 mg/kg body weight): 22.7-24.8% | fewer micrometastases than vehicle (231-BR-HER2 cells; 40 or 80 mg/kg body weight): 22.3-31.9% | Micro metastases # (231-BR-HER2 cells; [4]): 228.1 ± 28.3 | Micro metastases # (231-BR-HER2 cells; [5]): 199.8 ± 24.1 | fewer large metastasis than vehicle (231-BR-vector cells; 231-BR-vector cells, 80 mg/kg body weight, p<0.05): 31% | fewer micrometastases than vehicle (231-BR-vector cells; 231-BR-vector cells, 40 or 80 mg/kg body weight, p<0.05): 28.5-31.3% | large metastases # (231-BR-vector cells; [4]): 11.8 ± 2.0 | large metastases # (231-BR-vector cells; [5]): 10.2 ± 1.3 | Micro metastases # (231-BR-vector cells; [5]): 150.2 ± 22
